Source: patent publication US11701361B2, “p110-delta inhibitors treat and prevent autoimmunity while sparing the ability to mount an immune response to exogenous immunogens” (THE REGENTS OF THE UNIVERSITY OF COLORADO, priority 2018, dated 2023)

Key:
[1] = test system: PTEN^−/+×SHIP-1^−/+ B cells; assay: adoptive transfer of autoreactive PTEN-/+ x SHIP-1-/+ Ars/A1 B cells, loss of anergy; format: in vivo, mouse; conditions: for number of autoreactive ASCs/spleen: day 14
Description: Except where otherwise indicated, 6-16 week old mice were used in all experiments. Both male and female mice were used, but experiments were sex matched and both sexes gave identical results, with the exception of only female mice being used in the VH125.NOD experiments as female mice develop accelerated disease. hCD20-TamCre animals (Khalil, et al. Science 336: 1178-81) were intercrossed with mice carrying the rosa26-flox-STOP-YFP allele (Srinivas, et al., BMC Dev. Biol. 1:4), generating mice in which YFP is expressed in B cells upon Cre activation. These mice were crossed with Ars/A1 (Benschop, et al., Immunity 14: 33-43) transgenic mice to generate hCD20-TamCre×rosa26-flox-STOP-YFP×Ars/A1 mice. B cells from these mice will be referred to as WT Ars/A1. These mice were also crossed with SHIP-1^flox/flox mice (Karlsson, et al. J Exp Med 198: 333-40). hCD20-TamCre×rosa26-flox-STOP-YFP×Ars/A1 mice were also crossed to PTEN^flox/flox mice (Anzelon, et al., Nat Immunol 4: 287-94) and SHP-1^flox/flox mice to generate mice in which SHIP-1, PTEN and SHP-1 deletion can be induced in anergic B cells. hCD20-TamCre×rosa26-flox-STOP-YFP×PTEN^flox/flox×Ars/A1 were crossed to hCD20-TamCre×rosa26-flox-STOP-YFP×SHIP-1^flox/flox×Ars/A1 to generate hCD20-TamCre×rosa26-flox-STOP-YFPx PTEN^flox/wt×SHIP-1^flox/wt×Ars/A1 to allow for the double haploinsufficiency of both PTEN and SHIP-1 within B cells.
2 hours before adoptive transfer, C57BL/6 recipient mice received 200 rads irradiation. […] B cells from donor mice were isolated via depletion of CD43+ cells with anti-CD43-conjugated magnetic beads (MACS anti-mouse CD43; Miltenyi Biotec). Alternatively, CD4+ T cells were isolated via CD4 positive selection (MACS anti-mouse CD4 (L3T4) Miltenyi Biotec). Resultant populations were >97% pure based on flow cytometric analyses. Donor B cells were labeled with either CellTrace Violet (Molecular Probes) or CFSE (Molecular Probes) at 5 μM for 5 minutes at room temperature prior to transfer. Donor CD4 T cells were labeled with CFSE (Molecular Probes) at 5 μM for 5 minutes at room temperature prior to transfer. 1-2×10^6 donor cells in 200 μl PBS were adoptively transferred via IV injection. 24 hours post transfer, tamoxifen was administered to activate Cre. Tamoxifen (Sigma-Aldrich) was dissolved in 100% corn oil (Sigma-Aldrich) at 20 mg/ml. Recipient mice were injected IP with 100 μl (2 mg) on two consecutive days.
Diet dose (DD) is calculated by multiplying the single daily dose (SD) by the body weight of a mouse (BW) and dividing that by the daily food intake (FI) [DD=(SD×BW)/FI].
For VH125.NOD experiments animals are placed on control chow immediately after weaning.
Spleens were mechanically disrupted, single-cell suspensions were generated, and red blood cells were lysed with ammonium chloride TRIS. Cells were resuspended in PBS containing 1% FBS and incubated with indicated antibodies. For analysis of cell surface markers, antibodies against the following molecules were used: B220-PE (BioLegend), B220-BV786 (BD Biosciences), B220-BV510 (BioLegend), CD4-BV711 (BioLegend), CD8-BV421 (BioLegend), CD138-PECy7 (BioLegend), CD69-BV786 (BD Biosciences), CD86-PerCPCy5.5 (BioLegend). After cell surface staining, the cells were fixed and permeabilized with Cytofix/Cytoperm (BD) per manufacturer's instructions and stained with Dylight650-E4 anti-Ars/A1 idiotype (produced and conjugated in our laboratory) OR HEL-650 (produced and conjugated in our laboratory) and Alexa Fluor 488-anti-GFP (rabbit polyclonal; Life Technologies). Events were collected on a CyAn ADP (Dako) and subsequent analysis using FlowJo software (Tree Star).
For detection of IgM^a anti-Ars antibodies, microtiter plates were coated with 10 μg/ml Ars-BSA16 in PBS and blocked with 2 mg/ml BSA in PBS 0.05% Tween-20. For detection of IgM^a anti-HEL antibodies, microtiter plates were coated with 10 μg/ml HEL in PBS and blocked with 2 mg/ml BSA in PBS 0.05% Tween-20. […]

CD4 T cells = assay: calcium mobilization of CD4 T cells after TCR aggregation; format: cell-based, mouse; conditions: 15 nM idelalisib, biotin-anti-CD3 and avidin
Protocol: For measurements of intracellular free calcium concentration ([Ca^2+]i), RBC-depleted single-cell suspended splenocytes were simultaneously stained with CD8-PE (BD Biosciences), CD4-APC (BioLegend) or B220-PE and loaded with Indo-1 acetoxymethyl (Molecular Probes), as described previously (Gauld, et al., Nat Immunol 6: 1160-1167). For analysis of ([Ca^2+]i), cells were suspended at 10×10^6 cells/ml in warm IMDM+2% FBS in a 500 ul volume. […] Mean relative ([Ca^2+]i) was monitored over time using an LSR Fortessa X-20 (BD) with analysis using FlowJo software.
Because a therapeutic effect of the inhibitor on VH125.NOD disease progression and survival was observed, reduction in autoantibody responses in PTEN^−/+×SHIP-1^−/+ cells, yet equivalent autoantibody responses by SHP-1^−/− and MD4 B cells in mice receiving 0.9375 mg/kg idelalisib-containing chow, we chose to focus our analysis on effects of this dose on T cell function. […] To analyze in vivo CD4 T cell responses, OT-II CD4 T cells were adoptively transferred into congenically mismatched recipients and immunized with OVA+P:IC as represented diagrammatically in FIG. 6C. […] The transferred OT-II cells that proliferated most underwent the greatest upregulation of CD44 (FIG. 6D).

[2] = 0.9375 mg/kg, 3.75 mg/kg and 30 mg/kg chow, relative to vehicle control chow

Structure (SMILES): CC[C@H](Nc1ncnc2nc[nH]c12)c1nc2cccc(F)c2c(=O)n1-c1ccccc1 [idelalisib, 5-fluoro-3-phenyl-2-[(1S)-1-(7H-purin-6-ylamino)propyl]-4(3H)-quinazolinone]
- number of autoreactive ASCs/spleen ([1]; 0.9375 mg/kg and 3.75 mg/kg chow): significantly reduced
- serum autoantibody (IgM^a anti-Ars) ([1]; 0.9375 mg/kg, 3.75 mg/kg and 30 mg/kg chow, day 14, relative to untreated controls): significantly decreased
- plasmablast differentiation as measured by CD138 positivity [1, 2]: significantly decreased
- proliferation of transferred B cells [1, 2]: significantly decreased
- number of autoreactive ASCs/spleen ([1]; 30 mg/kg chow): undetected
- total Ars/A1 idiotype+ YFP+ B cells in the spleens (recovery of transferred cells) ([1]; day 14 post transfer, regardless of treatment): no significant difference
- calcium mobilization of CD4 T cells (CD4 T cells): failed to inhibit
